The values that follow come from patent publication US6218392A, “Fused pyridazine compounds” (priority 1994, dated 2001).

As a reminder, the IC50 is the midpoint of a concentration-inhibition curve.

Where a name gives a salt, the structure may show the parent alone.

One test concerns the target T1, cGMP-PDE (Sus scrofa, UniProt A0A287B475).
T1 construct: Swine lung was minched, followed by the addition of five times (by volume) as much buffer A; from tissue; host or cells: swine lung
Description: Inhibitory activity against cGMP-PDE prepared from swine lung. Format: biochemical. The settings on record: 1 mM EGTA, 1 mM cGMP as substrate, DMSO 5% or below. The method, then: The enzyme activity of the cGMP-PDE prepared from swine lung was determined according to the method of Thompson et al. This determination was conducted in the presence of 1 mM EGTA by the use of 1 mM cGMP as substrate. Each compound according to the present invention was dissolved in DMSO and thereafter added to the reaction system to determine the inhibitory activity of the compound. The final concentration of DMSO in the reaction solution was controlled to 5% or below.
The preparation of cGMP-PDE was conducted as follows.
Swine lung was minched, followed by the addition of five times (by volume) as much buffer A (comprising Tris/HCl (20 mM), Mg acetate (2 mM), 2-mercaptoethanol (10 mM), EGTA (0.1 mM) and PMSF (0.2 mM) and adjusted to pH7.4). The resulting mixture was homogenized and centrifuged at 1000×g for 5 minutes. Ammonium sulfate was added to the obtained supernatant and the resulting mixture was centrifuged at 20000×g for 45 minutes to collect a fraction precipitating between 30 and 40% saturation with ammonium sulfate. This fraction was dialyzed against buffer A and passed through a column of DEAE-Toyopearl 650S (a product of Tosoh, Tokyo, Japan). The column was washed with buffer A and subjected to gradient elution with 0.05 to 0.2 M NaClibuffer A to collect a cGMP-PDE fraction.
This cGMP-PDE fraction was passed through Blue-Sepharose CL-6B (a product of Pharmacia, Uppsala, Sweden). The resulting column was washed with buffer A containing cAMP (10 mM) and NaCl (0.5 M) and eluted with buffer A containing cGMP (10 mM) and NaCl (0.5 M). The obtained fraction was dialyzed, concentrated and stored.

The test system of test [1] is pulmonary arterial pressure (PAP). Description: Pulmonary arterial pressure lowering activity on anesthetized thoracotomized dog by intravenous administration. The class given is in vivo. The settings on record: relative ratio to activity of sodium 1-[chloro-4-(3,4-methylenedioxybenzyl)aminoquinazolin-2-yl]piperidine-4-carboxylate. The method, then: Male and female hybrid dogs having a weight of about 10 kg were operated under enflurane anesthesia with N2 O/O2 as carrier. Each dog was thoracotomized in the left fourth intercostal space and a pressure transducer (MPC-500 mfd. by Miller) was inserted into the pulmonary artery to determine the pulmonary arterial pressure (PAP). This experiment was conducted with the mean PAP (mPAP) increased by about 10 mmHg by lowering the pressure of oxygen fed by about 40% of the normal one. Each compound according to the present invention was dissolved in Polyethylene glycol 400 (a product of Wako Pure Chemical Industries, Ltd.) in a concentration of 1 mg/ml and, if necessary, further diluted with Polyethylene glycol 400. The resulting solution was intravenously administered to the dog through a polyethylene catheter indwelling in the femoral vein.

Consider `COc1ccc(CNc2nnc(N3CCC(O)CC3)c3ccc(C#N)cc23)cc1Cl` [Example 4, 4-(3-Chloro-4-methoxybenzyl)amino-6-cyano-1-(4-hydroxypiperidino)phthalazine hydrochloride], for which it took 0.18 nM to reach half-maximal inhibition at cGMP-PDE (IC50).

Consider `COc1ccc(CNc2nnc(N3CCCC(O)C3)c3ccc(C#N)cc23)cc1Cl.Cl` (stereo not drawn) [Example 10, 4-(3-Chloro-4-methoxybenzyl)amino-6-cyano-1-(3-hydroxypiperidino)phthalazine hydrochloride], for which, in test [1], the PAP lowering activity amounted to 10.

As for `COc1ccc(CNc2nnc(N3CCC(CO)CC3)c3ccc(C#N)cc23)cc1Cl.Cl` [Example 6, 4-(3-Chloro-4-methoxybenzyl)amino-6-cyano-1-[4-(hydroxymethyl)piperidino]phthalazine hydrochloride], 0.015 nM corresponded to half-maximal inhibition against cGMP-PDE (IC50). Moreover, in test [1], the PAP lowering activity was found to be 10.

`Cl.N#Cc1ccc2c(N3CCC(O)CC3)nnc(NCc3ccc4c(c3)OCO4)c2c1` [Example 26, 6-Cyano-1-(4-hydroxypiperidino)-4-(3,4-methylenedioxy-benzyl)aminophthalazine hydrochloride]: on cGMP-PDE, inhibition was half-maximal at 4 nM (IC50). In addition, in test [1], the PAP lowering activity came out at 1.

For `COc1ccc(CNc2nnc(N3CCC(CCO)CC3)c3ccc(Cl)cc23)cc1Cl` [Example 37, 6-Chloro-4-(3-chloro-4-methoxybenzyl)amino-1-[4-(2-hydroxyethyl)piperidino]phthalazine], on cGMP-PDE, the IC50 turned out to be 1.8 nM. Moreover, in test [1], the PAP lowering activity was no more than 0.33.

Regarding `COc1ccc(CNc2nnc(N3CCC(O)CC3)c3ccc(Cl)cc23)cc1Cl.Cl` [Example 32, 6-Chloro-4-(3-chloro-4-methoxybenzyl)amino-1-(4-hydroxypiperidino)phthalazine hydrochloride], the midpoint of inhibition at cGMP-PDE, the IC50, lay at 4.4 nM. Besides, the PAP lowering activity in test [1] was 1.

`CCOC(=O)C1CCN(c2nnc(NCc3ccc(OC)c(Cl)c3)c3cc([N+](=O)[O-])ccc23)CC1` [Example 55, 1-(4-Ethoxycarbonylpiperidino)-4-(3-chloro-4-methoxybenzyl)amino-6-nitrophthalazine] showed an IC50 against cGMP-PDE of 4.59 nM. Moreover, in test [1], the PAP lowering activity is no less than 1.

As for `COc1ccc(CNc2nn(CCCO)c(=O)c3ccc(C#N)cc23)cc1Cl` [Example 25, 4-(3-Chloro-4-methoxybenzyl)amino-6-cyano-2-(3-hydroxypropyl)-1(2H)-phthalazinone], inhibition at cGMP-PDE was half-maximal at 1.41 nM (IC50). In addition, in test [1], the PAP lowering activity was 3.

Regarding `COc1ccc(CNc2nnc(N3CCC(CO)CC3)c3ccc(Cl)cc23)cc1Cl` [Example 36, 6-Chloro-4-(3-chloro-4-methoxybenzyl)amino-1-[4-(hydroxymethyl)piperidino]phthalazine], the IC50 at cGMP-PDE is 1.9 nM. In addition, the PAP lowering activity in test [1] was no less than 1.

As to `COc1ccc(CNc2nnc(N3CCC(C(=O)O)CC3)c3ccc(C#N)cc23)cc1Cl` [Example 20, 1-(4-Carboxypiperidino)-4-(3-chloro-4-methoxybenzyl)-amino-6-cyanophthalazine hydrochloride], at cGMP-PDE, the IC50 was determined as 0.12 nM. Besides, the PAP lowering activity in test [1] was 0.3-1.

As to `COc1ccc(CNc2nnc(N3CCC(C(=O)O)CC3)c3cc(Cl)c(Cl)cc23)cc1Cl` [Example 67, 1-(4-Carboxypiperidino)-4-(3-chloro-4-methoxybenzyl)amino-6,7-dichlorophthalazine], the IC50 against cGMP-PDE was 0.32 nM. Besides, the PAP lowering activity in test [1] came out at 0.33.

As to `COc1ccc(CNc2nnc(N(C)CCCC(=O)O)c3ccc(Cl)cc23)cc1Cl` [Example 44], the IC50 against cGMP-PDE amounted to 2.1 nM. In test [1], the PAP lowering activity is reported as no more than 0.33.

In the case of `COc1ccc(CNc2nnc(N3CCC(C(=O)O)CC3)c3ccc([N+](=O)[O-])cc23)cc1Cl.Cl` [Example 56, 1-(4-Carboxypiperidino)-4-(3-chloro-4-methoxybenzyl)amino-6-nitrophthalazine hydrochloride], the IC50 at cGMP-PDE was determined as 12.6 nM. In addition, the PAP lowering activity in test [1] is listed as no less than 1.

As to `O=[N+]([O-])c1ccc2c(-n3ccnc3)nnc(NCc3ccc4c(c3)OCO4)c2c1` [Example 60, 1-(Imidazol-1-yl)-4-(3,4-methylenedioxybenzyl)amino-6-nitrophthalazine], the IC50 against cGMP-PDE amounted to 20.4 nM. Further, the PAP lowering activity in test [1] is on record as 1.

`COc1ccc(CNc2nnc(N3CCC(CCO)CC3)c3ccc(C#N)cc23)cc1Cl.Cl` [Example 8, 4-(3-Chloro-4-methoxybenzyl)amino-6-cyano-1-[4-(2-hydroxyethyl)piperidino]phthalazine hydrochloride] displayed an IC50 against cGMP-PDE of 0.03 nM. For the same compound, the PAP lowering activity in test [1] came out at 10.

The compound `COc1ccc(CNc2nnc(NCCCO)c3ccc(C#N)cc23)cc1Cl` [Example 7, 4-(3-Chloro-4-methoxybenzyl)amino-6-cyano-1-(3-hydroxypropyl)aminophthalazine] yielded an IC50 at cGMP-PDE of 1.2 nM. Besides, the PAP lowering activity in test [1] came to 1.

Regarding `COc1ccc(CNc2nnc(N3CCC(O)CC3)c3ccc([N+](=O)[O-])cc23)cc1Cl` [Example 51, 4-(3-Chloro-4-methoxybenzyl)amino-1-(4-hydroxy-piperidino)-6-nitrophthalazine hydrochloride], the IC50 against cGMP-PDE was 0.052 nM.

On to `COc1ccc(CNc2nnc(-n3ccnc3)c3ccc(Cl)cc23)cc1Cl` [Example 31, 6-Chloro-4-(3-chloro-4-methoxybenzyl)amino-1-(imidazol-1-yl)phthalazine], for which, on cGMP-PDE, the IC50 was 3.74 nM. The PAP lowering activity in test [1] is listed as 1.

At cGMP-PDE, `COc1ccc(CNc2nnc(N3CCC(C(=O)O)CC3)c3ccc(Cl)cc23)cc1Cl` [Example 43, 1-(4-Carboxypiperidino)-6-chloro-4-(3-chloro-4-methoxybenzyl)aminophthalazine] returned an IC50 of 0.37 nM. The PAP lowering activity in test [1] came out at 1.

For `COc1ccc(CNc2nnc(N3CCC(C)(O)CC3)c3ccc(C#N)cc23)cc1Cl.Cl` [Example 9, 4-(3-Chloro-4-methoxybenzyl)amino-6-cyano-1-(4-hydroxy-4-methylpiperidino)phthalazine hydrochloride], the IC50 on cGMP-PDE was 0.7 nM. Also, in test [1], the PAP lowering activity came to 10.

Regarding `COc1ccc(CNc2nnc(N3CCC(=O)CC3)c3ccc(C#N)cc23)cc1Cl.Cl` [Example 19, 4-(3-Chloro-4-methoxybenzyl)amino-6-cyano-1-(4-oxopiperidino)phthalazine hydrochloride], half-maximal inhibition against cGMP-PDE (IC50) required 0.53 nM. For the same compound, the PAP lowering activity in test [1] is 3-10.

The compound `COc1ccc(CNc2nnc(NCc3ccccn3)c3ccc(C#N)cc23)cc1Cl` [Example 11, 4-(3-Chloro-4-methoxybenzyl)amino-6-cyano-1-(2-pyridylmethyl)aminophthalazine dihydrochloride] returned an IC50 at cGMP-PDE of 0.11 nM.

The compound `COc1ccc(CNc2nnc(N3CCC(CCO)CC3)c3ccc([N+](=O)[O-])cc23)cc1Cl.Cl` [Example 53, 4-(3-Chloro-4-methoxybenzyl)amino-1-[4-(2-hydroxyethyl)piperidino]-6-nitrophthalazine hydrochloride] showed an IC50 against cGMP-PDE of 0.23 nM. For the same compound, the PAP lowering activity in test [1] is reported as 10.

`COc1ccc(CNc2nnc(N3CCC(CO)CC3)c3ccc([N+](=O)[O-])cc23)cc1Cl.Cl` [Example 52, 4-(3-Chloro-4-methoxybenzyl)amino-1-[4-(hydroxymethyl)piperidino]-6-nitrophthalazine hydrochloride] returned an IC50 on cGMP-PDE of 0.1 nM. The PAP lowering activity in test [1] is listed as 10.

At cGMP-PDE, `COc1ccc(CNc2nnc(Cl)c3ccc([N+](=O)[O-])cc23)cc1Cl` [Example 49, 1-Chloro-4-(3-chloro-4-methoxybenzyl)amino-6-nitrophthalazine] registered an IC50 of 1.88 nM. Besides, the PAP lowering activity in test [1] amounted to 1.

On to `COc1ccc(CNc2nnc(Cl)c3ccc(C#N)cc23)cc1Cl` [Example 1, 1-Chloro-4-(3-chloro-4-methoxybenzyl)amino-6-cyanophthalazine], for which the IC50 against cGMP-PDE is 1.7 nM. Also, the PAP lowering activity in test [1] is recorded as no less than 3.
